The record followed here is article PMC11995724, “Antibiotic target discovery by integrated phenotypic and activity-based profiling of electrophilic fragments” (Cell chemical biology, 2025).

The nature of this series: in vitro. To be noted: human, hek293t cells.
Broadly, the viability is a read-out of living cells in per cent, often relative to untreated cells. For the compound `C=CC(=O)NCC1CCC2(CCCC2)O1` (stereo not shown) [1-A06, N-({1-oxaspiro[4.4]nonan-2-yl}methyl)prop-2-enamide], the viability at 48 h, 25 µM was found to be 106%.

Take `C=CC(=O)NCC1CCN(C2CC2)CC1` [1-A07, N-[(1-cyclopropylpiperidin-4-yl)methyl]prop-2-enamide]: the viability at 48 h, 25 µM stood at 80.2%.

For the compound `C=CC(=O)NC1CCCN(c2cc(N3CCOCC3)ncn2)C1` (stereo not shown) [1-A08, N-{1-[6-(morpholin-4-yl)pyrimidin-4-yl]piperidin-3-yl}prop-2-enamide], the viability at 48 h, 25 µM was found to be 103%.

`C=CC(=O)N1CC(C(N)=O)Oc2ccccc21` (stereo not shown) [1-A09, 4-(prop-2-enoyl)-3,4-dihydro-2H-1,4-benzoxazine-2-carboxamide]: the viability at 48 h, 25 µM was determined as 24.7%.

For the compound `C=CC(=O)N(CC)c1cccc(C)c1` [1-A10, N-ethyl-N-(3-methylphenyl)prop-2-enamide], the viability at 48 h, 25 µM was 76.6%.

Regarding `C=CC(=O)Nc1cnn(CC(F)(F)F)c1` [1-A11, N-[1-(2,2,2-trifluoroethyl)-1H-pyrazol-4-yl]prop-2-enamide], the viability at 48 h, 25 µM was found to be 91.8%.

Take `C=CC(=O)Nc1cc(C(=O)O)ccc1O` [1-A12, 4-hydroxy-3-(prop-2-enamido)benzoic acid]: the viability at 48 h, 25 µM was found to be 75.1%.

Turning to `C=CC(=O)NCCc1csc(-c2ccccc2)n1` [1-A13, N-[2-(2-phenyl-1,3-thiazol-4-yl)ethyl]prop-2-enamide], the viability at 48 h, 25 µM is 88.5%.

On to `C=CC(=O)NC1CCc2ccccc21` (stereo not shown) [1-A14, N-(2,3-dihydro-1H-inden-1-yl)prop-2-enamide], for which the viability at 48 h, 25 µM stood at 107%.

As to `C=CC(=O)Nc1cc(S(=O)(=O)N2CCCCCC2)ccc1OC` [1-A15, N-[5-(azepane-1-sulfonyl)-2-methoxyphenyl]prop-2-enamide], the viability at 48 h, 25 µM worked out at 1.58%.

For `C=CC(=O)Nc1cccc(-c2nnnn2C(C)C)c1` [1-A16, N-{3-[1-(propan-2-yl)-1H-1,2,3,4-tetrazol-5-yl]phenyl}prop-2-enamide], the viability at 48 h, 25 µM was 98.3%.

In the case of `C=CC(=O)NCC1(c2ccccc2Cl)CCCCC1` [1-A17, N-{[1-(2-chlorophenyl)cyclohexyl]methyl}prop-2-enamide], the viability at 48 h, 25 µM was 64.2%.

On to `C=CC(=O)Nc1ccccc1CCC(N)=O` [1-A18, N-[2-(2-carbamoylethyl)phenyl]prop-2-enamide], for which the viability at 48 h, 25 µM came to 125%.

`C=CC(=O)Nc1ccccc1CCSC` [1-A19, N-{2-[2-(methylsulfanyl)ethyl]phenyl}prop-2-enamide]: the viability at 48 h, 25 µM was found to be 93.5%.

In the case of `C=CC(=O)NC(C)(Cn1cccn1)C(N)=O` (stereo not shown) [1-A20, N-{1-carbamoyl-1-[(1H-pyrazol-1-yl)methyl]ethyl}prop-2-enamide], the viability at 48 h, 25 µM came out at 113%.

Take `C=CC(=O)NCc1cc(-c2ccco2)on1` [1-A21, N-{[5-(furan-2-yl)-1,2-oxazol-3-yl]methyl}prop-2-enamide]: the viability at 48 h, 25 µM turned out to be 166%.

As to `C=CC(=O)N1CCCn2cccc2C12CCOCC2` [1-A22, 1-{2',3',4',5'-tetrahydrospiro[oxane-4,1'-pyrrolo[1,2-a][1,4]diazepin]-2'-yl}prop-2-en-1-one], the viability at 48 h, 25 µM is 109%.

On to `C=CC(=O)NC1CCCN(C(=O)CCC(F)(F)F)C1` (stereo not shown) [1-B03, N-[1-(4,4,4-trifluorobutanoyl)piperidin-3-yl]prop-2-enamide], for which the viability at 48 h, 25 µM came out at 108%.

Take `C=CC(=O)N(Cc1ccc(Cl)cc1Cl)CC1CCC(O)C1` (stereo not shown) [1-B04, N-[(2,4-dichlorophenyl)methyl]-N-[(3-hydroxycyclopentyl)methyl]prop-2-enamide]: the viability at 48 h, 25 µM was found to be 26.4%.

As to `C=CC(=O)N(C)Cc1cc(-c2ccccc2)[nH]n1` [1-B05, N-methyl-N-[(5-phenyl-1H-pyrazol-3-yl)methyl]prop-2-enamide], the viability at 48 h, 25 µM is 92.7%.

Take `C=CC(=O)NC1CC2CCC(C1)S2` (stereo not shown) [1-B06, N-{8-thiabicyclo[3.2.1]octan-3-yl}prop-2-enamide]: the viability at 48 h, 25 µM worked out at 84.7%.

Take `C=CC(=O)NC(Cc1ccccc1)c1ncco1` (stereo not shown) [1-B07, N-[1-(1,3-oxazol-2-yl)-2-phenylethyl]prop-2-enamide]: the viability at 48 h, 25 µM was determined as 118%.

For `C=CC(=O)NC(C)c1cc2cnccc2o1` (stereo not shown) [1-B08, N-(1-{furo[3,2-c]pyridin-2-yl}ethyl)prop-2-enamide], the viability at 48 h, 25 µM worked out at 80.6%.

For `C=CC(=O)N1CCOC(Cn2nc(C)nc2C)C1` (stereo not shown) [1-B09, 1-{2-[(3,5-dimethyl-1H-1,2,4-triazol-1-yl)methyl]morpholin-4-yl}prop-2-en-1-one], the viability at 48 h, 25 µM was determined as 161%.

For the compound `C=CC(=O)N1CCC[C@H]1C(=O)Nc1cccc(C)n1` [1-B10, (2S)-N-(6-methylpyridin-2-yl)-1-(prop-2-enoyl)pyrrolidine-2-carboxamide], the viability at 48 h, 25 µM was determined as 77.1%.

Regarding `C=CC(=O)N(Cc1c(C)cccc1C)C1CCc2nc(C)nn2C1` (stereo not shown) [1-B11, N-[(2,6-dimethylphenyl)methyl]-N-{2-methyl-5H,6H,7H,8H-[1,2,4]triazolo[1,5-a]pyridin-6-yl}prop-2-enamide], the viability at 48 h, 25 µM is 114%.

Turning to `C=CC(=O)N(C)C1CCN(c2cnccn2)CC1` [1-B12, N-methyl-N-[1-(pyrazin-2-yl)piperidin-4-yl]prop-2-enamide], the viability at 48 h, 25 µM was determined as 70.1%.

As for `C=CC(=O)NC(c1ccccc1)c1nc(C)no1` (stereo not shown) [1-B13, N-[(3-methyl-1,2,4-oxadiazol-5-yl)(phenyl)methyl]prop-2-enamide], the viability at 48 h, 25 µM was 109%.

In the case of `C=CC(=O)Nc1c(OC)nc(Cl)nc1OC` [1-B14, N-(2-chloro-4,6-dimethoxypyrimidin-5-yl)prop-2-enamide], the viability at 48 h, 25 µM came to 60.2%.

As for `C=CC(=O)N(Cc1sc(C)nc1C)[C@@H](C)[C@H]1COC(C)(C)O1` [1-B15, N-[(1S)-1-[(4S)-2,2-dimethyl-1,3-dioxolan-4-yl]ethyl]-N-[(2,4-dimethyl-1,3-thiazol-5-yl)methyl]prop-2-enamide], the viability at 48 h, 25 µM is 90%.

For `C=CC(=O)Nc1nc(Cc2ccccc2)c(C)s1` [1-B16, N-(4-benzyl-5-methyl-1,3-thiazol-2-yl)prop-2-enamide], the viability at 48 h, 25 µM turned out to be 73.2%.

As for `C=CC(=O)N(Cc1ccc(=O)n(C)c1)C1CCCc2ccccc21` (stereo not shown) [1-B17, N-[(1-methyl-6-oxo-1,6-dihydropyridin-3-yl)methyl]-N-(1,2,3,4-tetrahydronaphthalen-1-yl)prop-2-enamide], the viability at 48 h, 25 µM amounted to 112%.

In the case of `C=CC(=O)N1CCN(Cc2cc(C)no2)CC1` [1-B18, 1-{4-[(3-methyl-1,2-oxazol-5-yl)methyl]piperazin-1-yl}prop-2-en-1-one], the viability at 48 h, 25 µM came out at 70.8%.

For `C=CC(=O)N1CCC(NC(C)=O)C1` (stereo not shown) [1-B19, N-[1-(prop-2-enoyl)pyrrolidin-3-yl]acetamide], the viability at 48 h, 25 µM was determined as 114%.

As for `C=CC(=O)N1CCNC(=O)C1Cc1nc2ccccc2o1` (stereo not shown) [1-B20, 3-[(1,3-benzoxazol-2-yl)methyl]-4-(prop-2-enoyl)piperazin-2-one], the viability at 48 h, 25 µM came to 82.9%.

On to `C=CC(=O)NC1c2cccc(F)c2CCC1C` (stereo not shown) [1-B21, N-(5-fluoro-2-methyl-1,2,3,4-tetrahydronaphthalen-1-yl)prop-2-enamide], for which the viability at 48 h, 25 µM worked out at 92.8%.

For the compound `C=CC(=O)NC(Cc1nc(C)no1)c1ccccc1` (stereo not shown) [1-B22, N-[2-(3-methyl-1,2,4-oxadiazol-5-yl)-1-phenylethyl]prop-2-enamide], the viability at 48 h, 25 µM is 68.5%.

As for `C=CC(=O)NCC1SCCS1` [1-C03, N-[(1,3-dithiolan-2-yl)methyl]prop-2-enamide], the viability at 48 h, 25 µM came to 87.6%.

For the compound `C=CC(=O)Nc1ccc(OC)cc1S(C)(=O)=O` [1-C04, N-(2-methanesulfonyl-4-methoxyphenyl)prop-2-enamide], the viability at 48 h, 25 µM came out at 65.8%.

For the compound `C=CC(=O)NC(CO)c1nc(C)no1` (stereo not shown) [1-C05, N-[2-hydroxy-1-(3-methyl-1,2,4-oxadiazol-5-yl)ethyl]prop-2-enamide], the viability at 48 h, 25 µM stood at 71.4%.

As for `C=CC(=O)N1CCC(C(=O)N2CCc3ccc([N+](=O)[O-])cc32)CC1` [1-C06, 1-[4-(6-nitro-2,3-dihydro-1H-indole-1-carbonyl)piperidin-1-yl]prop-2-en-1-one], the viability at 48 h, 25 µM stood at 49.9%.

On to `C=CC(=O)NCc1coc(-c2cccs2)n1` [1-C07, N-{[2-(thiophen-2-yl)-1,3-oxazol-4-yl]methyl}prop-2-enamide], for which the viability at 48 h, 25 µM is 70.1%.

Consider `C=CC(=O)NCc1c(C)nc2ccccn12` [1-C08, N-({2-methylimidazo[1,2-a]pyridin-3-yl}methyl)prop-2-enamide], for which the viability at 48 h, 25 µM was determined as 82.8%.

Regarding `C=CC(=O)NCc1ccnc(N2CCOCC2)c1` [1-C09, N-{[2-(morpholin-4-yl)pyridin-4-yl]methyl}prop-2-enamide], the viability at 48 h, 25 µM was found to be 70.7%.

For the compound `C=CC(=O)NCc1ccc(F)c(F)c1` [1-C10, N-[(3,4-difluorophenyl)methyl]prop-2-enamide], the viability at 48 h, 25 µM was 49.1%.

Turning to `C=CC(=O)Nc1c2c(cc3c1CCC3)CCC2` [1-C11, N-(1,2,3,5,6,7-hexahydro-s-indacen-4-yl)prop-2-enamide], the viability at 48 h, 25 µM worked out at 45.8%.

For the compound `C=CC(=O)N1CCCCC1` [1-C12, 1-(piperidin-1-yl)prop-2-en-1-one], the viability at 48 h, 25 µM is 98.4%.

For `C=CC(=O)NCc1cnc(-c2ccc(C(F)(F)F)cc2)s1` [1-C13, N-({2-[4-(trifluoromethyl)phenyl]-1,3-thiazol-5-yl}methyl)prop-2-enamide], the viability at 48 h, 25 µM is 75.8%.

Turning to `C=CC(=O)NC1CCN(c2ccc(Cl)c(Cl)c2)C1` (stereo not shown) [1-C14, N-[1-(3,4-dichlorophenyl)pyrrolidin-3-yl]prop-2-enamide], the viability at 48 h, 25 µM was determined as 52.9%.

With `C=CC(=O)N(C)Cc1c(C)nn(C)c1Cl` [1-C15, N-[(5-chloro-1,3-dimethyl-1H-pyrazol-4-yl)methyl]-N-methylprop-2-enamide], the viability at 48 h, 25 µM was determined as 86.1%.

On to `C=CC(=O)Nc1ccc(F)cc1C(C)(F)F` [1-C16, N-[2-(1,1-difluoroethyl)-4-fluorophenyl]prop-2-enamide], for which the viability at 48 h, 25 µM is 137%.

`C=CC(=O)Nc1cc(NC(=O)C2CC3CCC2CC3)ccc1F` (stereo not shown) [1-C17, N-[4-fluoro-3-(prop-2-enamido)phenyl]bicyclo[2.2.2]octane-2-carboxamide]: the viability at 48 h, 25 µM is 2.94%.
